SMILES strings stand for the structures.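 A five-concentration, 48-hour dose response in 96-well plates underlies each endpoint, interpolated linearly between surrounding concentrations. GI50 = concentration required for 50% inhibition of growth. TGI: total growth inhibition.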

What all share (assay): NCI anticancer screen, dose series, 48 h
Test [1] concerns IGROV1 ovarian.
Test [2] has as its system HOP-92 NSCLC.
The subject of test [3] is NCI-H23 lung.
Test [4] relates to CAKI-1 renal.
Test [5] relates to SK-MEL-5 melanoma.
Test [6] deals with PC-3 prostate.
The subject of test [7] is SW-620 colon.
The test system of test [8] is HCC-2998 colon.
Test [9] relates to TK-10 renal.
The test system of test [10] is LOX IMVI melanoma.

`CN(C)CC(=O)N1CCC(c2ccc(NC(=O)c3ncc(C#N)[nH]3)c(C3=CCCCC3)c2)CC1`: the GI50 is 7.48 µM in [1]; 0.21 µM in test [2]; 5.51 µM in [3]; 3.52 µM in test [4]; 3.5 µM in test [5]; 8.38 µM in test [6]. For the same molecule, the GI50 in test [7] is 4.98 µM; in [8], 5.74 µM; in [9] it was 7.86 µM; in test [10], 3.17 µM. Besides, the TGI worked out at 25.7 µM in test [1]; 2.74 µM in [2]; 19.5 µM in [3]; 16.1 µM in [4]; 13.4 µM in [5]; 25.5 µM in test [6]. In addition, the TGI in test [7] was found to be 18.7 µM; in [8] it was 19 µM; in [9] it was 20.6 µM; in test [10] it was 12.7 µM.

For the molecule `C=C1C(O)C2CCC(C)(C)C(=O)C2=C(CC(C)C)C12CC2` (stereo not drawn), the GI50 in test [1] was more than 100 µM; in test [2], 15 µM; in test [3], 66.7 µM; in [4], 31.2 µM; in [5] it was 24.8 µM; in test [6] it was 33.2 µM. The GI50 was 42 µM in test [7], 16.6 µM in [8], 67.9 µM in test [9] and 68.5 µM in test [10]. In addition, the TGI in [1] is more than 100 µM; in test [2], 70.3 µM; in [3] it was more than 100 µM; in test [4], 86.6 µM; in test [5], more than 100 µM; in test [6] it was more than 100 µM. Also, the TGI in [7] was more than 100 µM; in test [8], 65.8 µM; in [9] it was more than 100 µM; in test [10], more than 100 µM.

As for `C=CC(=O)N[C@H]1C=C(C)c2c(-c3cnc4ccccc4c3)c3c(N)ncnc3n2C1`, the GI50 in [1] was 0.568 µM; in [2] it was 2.46 µM; in [3], 19.6 µM; in test [4], 1.82 µM; in [5], 12.5 µM; in [6], 22.7 µM. Moreover, the GI50 in [7] is 23.8 µM; in test [8] it was 22.4 µM; in test [9], 0.0478 µM; in test [10] it was 7.16 µM. In addition, the TGI in test [1] was 12.2 µM; in [2] it was 15.7 µM; in [3] it was 54.5 µM; in test [4], 17.6 µM; in [5], 25.2 µM; in [6], more than 100 µM. Also, the TGI was more than 95.5 µM in [7], 45 µM in [8], 7.88 µM in test [9] and 23.5 µM in [10].

Take `NC(CO)Cc1cnc[nH]1` (stereo not drawn): the GI50 in [1], in [3], in test [5], in [6], in test [7] and in test [8] was more than 100 µM throughout. For the same molecule, the GI50 in test [9] and in [10] was more than 100 µM in each case. Further, the TGI was more than 100 µM in test [1]; more than 10 µM in test [2]; more than 100 µM in test [3]; more than 100 µM in [4]; more than 100 µM in [5]; more than 100 µM in test [6]. Further, the TGI in test [7], in test [8], in test [9] and in test [10] was more than 100 µM in each case.

For `N#Cc1c(NC(=O)c2cccc(C(F)(F)F)c2)sc2c1CCC(=O)C2`, the GI50 in test [1] is 0.582 µM; in [2], 1.02 µM; in test [3], 0.379 µM; in test [4] it was 0.287 µM; in test [5], 1.3 µM; in [6] it was 0.292 µM. For the same molecule, the GI50 in test [7] was 0.3 µM; in [8], 1.61 µM; in test [9] it was 0.543 µM; in [10], 0.369 µM. For the same molecule, the TGI is 2.09 µM in test [1]; 3.06 µM in test [2]; 2.88 µM in [3]; 1 µM in test [4]; 2.65 µM in [5]; 1.41 µM in [6]. Besides, the TGI in test [7] came out at 1.83 µM; in test [8] it was 3.37 µM; in [9] it was 2.34 µM; in test [10], 1.68 µM.

Turning to `CN=C(N)N/N=C(\c1ccccc1)c1ccc(Br)cc1`, the GI50 is 0.629 µM in test [1]; 0.3 µM in [2]; 0.562 µM in test [3]; 0.596 µM in [4]; 0.335 µM in [5]; 0.402 µM in test [6]. Also, the GI50 in [7] was 0.417 µM; in [8], 0.38 µM; in test [9] it was 0.709 µM; in test [10] it was 0.494 µM. In addition, the TGI in [1] came to 17.1 µM; in test [2], 2.9 µM; in [3] it was 11.8 µM; in test [4], 13.2 µM; in [5], 1.29 µM; in test [6], 11 µM. Moreover, the TGI came to 16.3 µM in [7], 1.37 µM in test [8], 8.47 µM in [9] and 2.97 µM in test [10].
